Measured values from patent publication US20080103089A1, “Compounds, Compositions, Formulations and Process for Preparation Thereof and Method of Treatment and Management of Acidity and Related Disorders” (priority 2004, published 2008).

Columns and labels:
Format in all cases: physicochemical
[1] = Titration of Glutamic acid in water with NaOH
From the text: About one milliequivalent of NaOH was neutralized per milliequivalent of Glutamic acid in water to raise the pH of its aqueous solution from 2.9 to about 5.

[2] = Titration of Sodium Glutamate solution
From the text: Crystalline Sodium Glutamate gave solution of pH 6.7. It took, per milliequivalent of Sodium Glutamate used, little less than 1 milliequivalent of HCl to bring the pH from 6.7 down to 3 and about 1 milliequivalent of […] the pH from 6.7 to 10.8. Here, the crystalline Sodium Glutamate solution of pH 6.7 represents an intermediate form of alkaline protein.

[3] = Determination of Acid Neutralization Capacity (ANC) by titration against 1N HCl
Experimental: About 20 ml of 1N NaOH was added to about or less than 1 gram dry weight of the active ingredient (Protein isolate or protein rich extract) with about 10 ml water content. In cold treatment, the mixture was kept at room temperature overnight until the sedimented coagulum was seen to have been dispersed evenly in a solution. In a hot treatment, the mixture was kept in an oven at 80 degrees Celsius, volume restored to 30 ml by addition of distilled water and titrated after various stages of degradation after the period of treatment. Alkali remaining in excess was either neutralized by titrating against 1N HCl until pH dropped to 10.8 or by dialyzing the mixture using gelatin membrane against 700 milliliter portions of distilled water three to four times until the dialysate contained little alkalinity.
Acid Neutralization Capacity was noted as milliequivalents of HCl neutralized to maintain the pH at 3 for two hours and expressed as per gram dry weight of the active antacid ingredient or per dose of the antacid composition containing the active ingredient. Total volume of the reactants were adjusted to 30 ml or 40 ml and titrated against 1N HCl and pH was noted after each small dropwise addition. The pH was measured by a pH meter.
In titration of distilled water, it was observed that pH of the water raised rapidly to 10.8 with addition of a single drop. Similarly, while titrating 1N NaOH against 1N HCl, fall in pH from 12.2 to 10.8 was gradual. However, thereafter, just one drop was sufficient to lower the pH to neutral. Thus, it was clear that acid neutralized by the products within the pH range of 3 to 10.8 was due to Acid Neutralization Capacity when solutions of antacid active ingredients covered in the examples were titrated for determination of their ANC.
When alkali treated mixtures were titrated, acid required to bring down the pH to 10.8 was considered as acid required to neutralize the unreacted NaOH. Acid required to neutralize pH from 10.8 up to pH 3 was taken for calculation of ANC.
Whenever desired, the alkali treated mixture was dialysed through gelatin membrane against about 700 milliliters of distilled water each time three to four times. Significant quantity of alkalinity appeared in first two dialyses in first two hours. Third dialysis, usually done for several hours overnight usually contained very little of alkalinity in the range of pH 10.8 and above.

For N[C@@H](CCC(=O)O)C(=O)O [Glutamic acid], the NaOH consumed ([1]; from pH 5 to 10.9) was “about 1.2 milliequivalents per milliequi”, the “pH of aqueous solution” value ([1]; in water, before titration) was 2.9 and the NaOH neutralized ([1]; to raise pH from 2.9 to about 5) was “About one”.
In the case of N[C@@H](CCC(=O)[O-])C(=O)[O-].[Na+].[Na+] [Sodium Glutamate], the pH of solution ([2]; crystalline Sodium Glutamate in solution) is reported as 6.7, the “HCl to bring the pH down” value ([2]; pH from 6.7 down to 3) is reported as “less than 1 milliequivalent per milliequiv” and the “HCl to raise the pH” value ([2]; pH from 6.7 to 10.8) is reported as “about 1 milliequivalent per milliequiv”.
With Casein the ANC ([3]; after cold alkali treatment (1N NaOH, room temperature overnight), pH 10.8 to 3) was 1.5 milliequivalents of HCl per gr, the ANC ([3]; after hot alkali treatment (80 degrees Celsius) of 2 days) was 4.88 milliequivalents of HCl per gr and the ANC ([3]; after hot alkali treatment (80 degrees Celsius) of 6 days) was 8 milliequivalents of HCl per gr. It also gave an ANC ([3]; untreated protein isolate, HCl neutralized to maintain pH 3 for two hours) of 0.12 per gram.
